A word on the IC50: it is the concentration at which inhibition is half-maximal. Broadly, the inhibition is the percentage by which the read-out fell short of the control. Read a high inhibition as strong suppression.

The text below walks through data of ChEMBL document CHEMBL4364309, “Rigidification Dramatically Improves Inhibitor Selectivity for RAF Kinases” (ACS Med Chem Lett, 2019).

The target of assay [1] is T1, Serine/threonine-protein kinase B-raf (Homo sapiens, UniProt P15056, V600E). The experiment in a line: Inhibition of recombinant His-tagged BRAF V600E mutant (unknown origin) (444-723 residues) expressed in Escherichia coli BL21(DE3)-RIL using MEKK97R as substrate assessed as reduction in phosphorylation incubated for 20 mins by immunoblot assay. (In general: Immunoblotting shows a protein as a band on a membrane.)

Another assay deals with A-375. The assay can be described thus: Antiproliferative activity at human A375 cells expressing BRAF V600E mutant assessed as reduction in cell viability incubated for 96 hrs by MTT assay. It counts as functional, cell-based. The note with it: A-375, 96 h. (Formazan colour is commonly taken as a measure of viable cells.)
The target in assay [2] is Serine/threonine-protein kinase B-raf (Homo sapiens) (UniProt P15056). The experiment in a line: Inhibition of BRAF (unknown origin) at 1 uM relative to control.
Assay [3] deals with RAF proto-oncogene serine/threonine-protein kinase (Homo sapiens) (UniProt P04049). The assay can be described thus: Inhibition of CRAF (unknown origin) at 1 uM relative to control.
Assay [4] has as its target Protein-tyrosine kinase 6 (Homo sapiens) (UniProt Q13882). The experiment in a line: Inhibition of BRK (unknown origin) at 1 uM relative to control.
Another assay concerns MDA-MB-435. The experiment in a line: Growth inhibition of human MDA-MB-435 cells harboring BRAF V600E mutant incubated for 48 hrs by sulforhodamine B assay. The class given is functional. Background: In SRB staining, fixed cells bind dye roughly in proportion to their protein.
A further assay relates to Malme-3M. The experiment in a line: Growth inhibition of human MALME-3M cells harboring BRAF V600E mutant incubated for 48 hrs by sulforhodamine B assay. It counts as functional.
The test system of assay [5] is Serine/threonine-protein kinase B-raf (Homo sapiens), P15056 [V600E]. The experiment in a line: Potency index, ratio vemurafenib IC50 to test compound IC50 for Inhibition of recombinant His-tagged BRAF V600E mutant (unknown origin) (444 to 723 residues) expressed in Escherichia coli BL21(DE3)-RIL.
Assay [6] deals with T1, Serine/threonine-protein kinase B-raf. The experiment in a line: Inhibition of BRAF V600E in human A375 cells assessed as reduction in ERK phosphorylation incubated for 1 hr by immunoblot analysis. It counts as cell-based.
Assay [7] has as its target Macrophage colony-stimulating factor 1 receptor (Homo sapiens) (UniProt P07333). The experiment in a line: Inhibition of FMS (unknown origin) at 1 uM relative to control.
The next assay relates to SK-MEL-5. The assay can be described thus: Growth inhibition of human SK-MEL-5 cells harboring BRAF V600E mutant incubated for 48 hrs by sulforhodamine B assay. The class given is functional.

T1 sequence (P15056 2-766 V600E limits assumed): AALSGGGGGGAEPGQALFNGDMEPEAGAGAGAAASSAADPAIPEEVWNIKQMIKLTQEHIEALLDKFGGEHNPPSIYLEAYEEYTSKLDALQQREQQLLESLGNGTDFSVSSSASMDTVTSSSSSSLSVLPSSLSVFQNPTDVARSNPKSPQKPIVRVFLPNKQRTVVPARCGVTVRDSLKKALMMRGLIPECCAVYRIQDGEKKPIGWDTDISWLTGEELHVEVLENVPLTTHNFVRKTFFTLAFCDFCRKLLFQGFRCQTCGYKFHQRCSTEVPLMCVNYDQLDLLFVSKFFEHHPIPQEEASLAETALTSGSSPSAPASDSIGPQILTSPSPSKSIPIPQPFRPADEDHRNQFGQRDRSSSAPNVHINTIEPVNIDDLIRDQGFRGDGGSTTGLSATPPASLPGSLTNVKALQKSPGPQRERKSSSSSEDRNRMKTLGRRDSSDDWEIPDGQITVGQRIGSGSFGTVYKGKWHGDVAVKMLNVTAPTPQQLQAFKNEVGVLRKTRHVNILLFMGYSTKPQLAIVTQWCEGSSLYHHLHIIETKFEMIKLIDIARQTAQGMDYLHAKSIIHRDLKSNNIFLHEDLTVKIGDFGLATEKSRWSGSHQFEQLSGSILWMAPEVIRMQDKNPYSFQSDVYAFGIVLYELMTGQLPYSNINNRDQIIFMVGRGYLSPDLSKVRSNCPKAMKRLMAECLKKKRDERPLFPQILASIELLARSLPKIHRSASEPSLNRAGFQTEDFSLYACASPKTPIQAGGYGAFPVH
Sequence of RAF proto-oncogene serine/threonine-protein kinase (Homo sapiens) (P04049 whole entry): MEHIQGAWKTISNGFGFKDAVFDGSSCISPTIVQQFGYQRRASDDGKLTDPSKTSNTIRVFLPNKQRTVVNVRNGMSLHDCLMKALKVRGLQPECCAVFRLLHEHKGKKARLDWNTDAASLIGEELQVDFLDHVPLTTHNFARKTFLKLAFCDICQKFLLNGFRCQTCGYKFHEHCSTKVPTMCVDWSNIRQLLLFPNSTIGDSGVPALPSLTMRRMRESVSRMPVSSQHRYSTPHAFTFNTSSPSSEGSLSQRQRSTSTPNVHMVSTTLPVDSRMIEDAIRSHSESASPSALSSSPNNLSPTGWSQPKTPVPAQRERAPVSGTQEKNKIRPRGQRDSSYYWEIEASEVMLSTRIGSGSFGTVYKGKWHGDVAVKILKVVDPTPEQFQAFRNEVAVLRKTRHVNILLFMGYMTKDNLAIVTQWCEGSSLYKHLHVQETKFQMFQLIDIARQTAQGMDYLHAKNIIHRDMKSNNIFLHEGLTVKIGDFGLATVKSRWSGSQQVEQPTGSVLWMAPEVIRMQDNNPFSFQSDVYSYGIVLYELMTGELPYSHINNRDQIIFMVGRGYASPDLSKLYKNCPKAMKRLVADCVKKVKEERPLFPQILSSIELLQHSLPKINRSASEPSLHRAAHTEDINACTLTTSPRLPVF
Sequence of Serine/threonine-protein kinase B-raf (Homo sapiens) (P15056 whole entry): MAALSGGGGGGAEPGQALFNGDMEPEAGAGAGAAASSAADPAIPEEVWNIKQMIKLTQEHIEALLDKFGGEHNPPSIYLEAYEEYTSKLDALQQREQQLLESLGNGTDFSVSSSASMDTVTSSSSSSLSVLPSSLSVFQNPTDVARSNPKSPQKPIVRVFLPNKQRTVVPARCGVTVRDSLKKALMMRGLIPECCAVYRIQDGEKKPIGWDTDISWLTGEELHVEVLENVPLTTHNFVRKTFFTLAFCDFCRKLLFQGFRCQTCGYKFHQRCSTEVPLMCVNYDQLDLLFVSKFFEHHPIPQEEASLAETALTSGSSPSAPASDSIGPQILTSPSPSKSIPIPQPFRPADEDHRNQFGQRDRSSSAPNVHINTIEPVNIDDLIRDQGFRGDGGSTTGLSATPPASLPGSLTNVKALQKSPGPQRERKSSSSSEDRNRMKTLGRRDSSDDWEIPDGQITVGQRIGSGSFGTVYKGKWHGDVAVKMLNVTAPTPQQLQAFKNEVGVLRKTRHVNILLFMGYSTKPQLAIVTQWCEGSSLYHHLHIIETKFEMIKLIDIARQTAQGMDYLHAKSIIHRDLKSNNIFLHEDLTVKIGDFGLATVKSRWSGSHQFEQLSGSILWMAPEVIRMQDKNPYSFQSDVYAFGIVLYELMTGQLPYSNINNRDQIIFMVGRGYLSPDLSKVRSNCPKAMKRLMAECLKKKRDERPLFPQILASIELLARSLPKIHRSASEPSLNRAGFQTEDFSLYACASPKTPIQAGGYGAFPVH
Sequence of Macrophage colony-stimulating factor 1 receptor (Homo sapiens) (P07333 whole entry): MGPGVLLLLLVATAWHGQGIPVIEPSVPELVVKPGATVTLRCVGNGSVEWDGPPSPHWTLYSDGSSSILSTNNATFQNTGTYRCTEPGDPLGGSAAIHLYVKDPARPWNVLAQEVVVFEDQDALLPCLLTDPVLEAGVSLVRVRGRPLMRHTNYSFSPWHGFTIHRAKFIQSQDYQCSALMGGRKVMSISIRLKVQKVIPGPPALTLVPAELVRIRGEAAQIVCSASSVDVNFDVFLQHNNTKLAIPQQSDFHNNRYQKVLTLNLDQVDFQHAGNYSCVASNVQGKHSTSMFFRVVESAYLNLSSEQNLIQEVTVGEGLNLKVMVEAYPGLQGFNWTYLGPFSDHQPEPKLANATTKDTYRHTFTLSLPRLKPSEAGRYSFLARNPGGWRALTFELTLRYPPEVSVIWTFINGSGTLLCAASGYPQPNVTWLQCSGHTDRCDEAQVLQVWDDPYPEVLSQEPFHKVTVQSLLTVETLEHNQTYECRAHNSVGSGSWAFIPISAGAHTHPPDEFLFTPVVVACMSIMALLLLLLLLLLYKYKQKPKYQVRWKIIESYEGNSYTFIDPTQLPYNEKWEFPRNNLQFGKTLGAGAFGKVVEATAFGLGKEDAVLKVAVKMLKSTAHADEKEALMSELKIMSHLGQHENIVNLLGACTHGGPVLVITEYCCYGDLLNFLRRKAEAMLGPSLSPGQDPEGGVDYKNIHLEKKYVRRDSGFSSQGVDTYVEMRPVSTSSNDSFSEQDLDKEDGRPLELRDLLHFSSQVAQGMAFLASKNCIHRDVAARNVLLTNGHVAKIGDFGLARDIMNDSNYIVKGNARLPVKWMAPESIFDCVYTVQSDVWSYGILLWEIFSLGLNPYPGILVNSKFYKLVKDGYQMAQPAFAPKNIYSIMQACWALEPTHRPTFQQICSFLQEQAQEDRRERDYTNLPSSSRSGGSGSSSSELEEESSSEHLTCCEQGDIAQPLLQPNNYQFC
Sequence of Protein-tyrosine kinase 6 (Homo sapiens) (Q13882 whole entry, looked up): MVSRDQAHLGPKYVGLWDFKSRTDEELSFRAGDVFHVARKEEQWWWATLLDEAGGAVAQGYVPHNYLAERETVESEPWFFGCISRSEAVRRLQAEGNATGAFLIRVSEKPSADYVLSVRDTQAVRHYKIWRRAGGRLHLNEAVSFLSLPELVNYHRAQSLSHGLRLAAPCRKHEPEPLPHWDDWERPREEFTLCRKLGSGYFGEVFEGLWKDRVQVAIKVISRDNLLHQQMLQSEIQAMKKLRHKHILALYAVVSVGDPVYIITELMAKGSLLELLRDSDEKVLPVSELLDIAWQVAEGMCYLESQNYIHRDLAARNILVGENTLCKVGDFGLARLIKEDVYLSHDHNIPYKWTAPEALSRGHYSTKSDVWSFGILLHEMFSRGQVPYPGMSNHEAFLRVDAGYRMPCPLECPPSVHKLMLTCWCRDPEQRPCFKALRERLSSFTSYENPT
Sequence of Serine/threonine-protein kinase B-raf (Homo sapiens), P15056 [V600E] (P15056 whole entry V600E, the tested form may be a part): as the sequence (P15056 whole entry) above, with V600E counted along it

For the molecule `CC(C)n1nc(C#Cc2cccc3c(Nc4cccc(C(F)(F)F)c4)ncnc23)c2c(N)ncnc21`, the concentration for half-maximal inhibition (IC50) in assay [1] was above 300 nM.

Consider `Cc1ccc(Nc2nccc3c(C#Cc4nn(C(C)C)c5ncnc(N)c45)cccc23)cc1C(F)(F)F`, for which the IC50 in assay [1] is above 300 nM.

`CC(C)n1nc(C#Cc2cccc3c(Nc4cccc(C(F)(F)F)c4)nccc23)c2c(N)ncnc21`: the 50% inhibitory concentration (IC50) in the assay with A-375 was above 10000 nM; in [1] it was 140 nM. Further, the inhibition in assay [2] and in assay [3] was above 85% each time.

Take `CC(C)n1nc(C#Cc2cccc3c(Oc4cccc(C(F)(F)F)c4)nccc23)c2c(N)ncnc21`: in assay [1], the IC50 is above 300 nM.

In the case of `CCCn1nc(C#Cc2cccc3c(Nc4cccc(C(F)(F)F)c4)nccc23)c2c(N)ncnc21`, the IC50 in assay [1] is above 300 nM.

Turning to `CCn1nc(C#Cc2c(C)ccc3c(Nc4ccc(Cl)cc4)nccc23)c2c(N)ncnc21`, the inhibition in [4], in assay [2], in [7] and in [3] was above 85% each time. Besides, the Activity result with MDA-MB-435, in the assay on Malme-3M and with SK-MEL-5 was “Dose-dependent effect” in each case. Also, the GI in the assay on MDA-MB-435 worked out at 4.6 µM; in the assay with Malme-3M, 7.1 µM; in the assay with SK-MEL-5 it was 6.6 µM. Besides, in assay [5], the Ratio IC50 stood at 2. The 50% inhibitory concentration (IC50) in the assay with A-375 is 417 nM; in assay [6] it was 420 nM; in assay [1] it was 8 nM.

For the molecule `CC(C)n1nc(C#Cc2cccc3c(Nc4ccc(Cl)cc4)nccc23)c2c(N)ncnc21`, the figures for the 50% inhibitory concentration (IC50) (in the assay with A-375; in assay [1]) were above 10000 nM and 29 nM, respectively.

For the molecule `Cc1cn(-c2cc(Nc3nccc4c(C#Cc5nn(C(C)C)c6ncnc(N)c56)cccc34)cc(C(F)(F)F)c2)cn1`, the concentration for half-maximal inhibition (IC50) in assay [1] is above 300 nM.

As to `CCn1nc(C#Cc2cccc3c(Nc4cccc(C(F)(F)F)c4)nccc23)c2c(N)ncnc21`, the IC50 in the assay with A-375 was above 10000 nM; in assay [1], 41 nM.

With `CCCS(=O)(=O)Nc1ccc(F)c(C(=O)c2c[nH]c3ncc(-c4ccc(Cl)cc4)cc23)c1F`, the inhibition in assay [2] and in assay [3] was above 85% each time.

For the molecule `CC(C)n1nc(C#Cc2cccc3c(Nc4ccc(Cl)c(C(F)(F)F)c4)nccc23)c2c(N)ncnc21`, the concentration for half-maximal inhibition (IC50) in assay [1] was above 300 nM.

With `Cc1ccc2c(Nc3cccc(C(F)(F)F)c3)nccc2c1C#Cc1nn(C(C)C)c2ncnc(N)c12`, the results for the IC50 (in the assay with A-375; in assay [1]) were 869 nM and 21 nM, respectively.

For the molecule `CC(C)n1nc(C#Cc2cccc3c(Nc4cccc(C(F)(F)F)c4)cccc23)c2c(N)ncnc21`, the IC50 in assay [1] is above 300 nM.
